Test results reported in ChEMBL document CHEMBL1201862, “PubChem BioAssay data set” (2004).
The source made the active and inactive calls.

Tests used:
[1] = biological target: T1, Mitochondrial peptide methionine sulfoxide reductase (Bos taurus, UniProt P54149); type: functional;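 note: absorbance read-out, biochemical high-throughput dose-response screen for MsrA inhibitors, confirmatory; recombinant bovine MsrA coupled to E. coli TrxB with NADPH and selenocystamine; potency is for inhibitors of MsrA activity on DMSO substrate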
T1 sequence (P54149 whole entry): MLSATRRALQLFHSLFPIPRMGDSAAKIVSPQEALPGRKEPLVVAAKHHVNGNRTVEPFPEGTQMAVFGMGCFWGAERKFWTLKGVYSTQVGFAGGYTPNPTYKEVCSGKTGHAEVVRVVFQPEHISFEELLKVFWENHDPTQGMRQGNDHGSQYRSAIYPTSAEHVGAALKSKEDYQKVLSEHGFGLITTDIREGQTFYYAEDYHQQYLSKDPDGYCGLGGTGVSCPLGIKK

[2] = biological target: T2, High affinity choline transporter 1 (Homo sapiens, UniProt Q9GZV3); assay: CHT inhibitors, dose response, cell-based, 10-point CRC, membrane potential dye (AID 588401); type: functional;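 note: membrane potential dye fluorescence of choline-evoked depolarization via CHT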
T2 sequence (Q9GZV3 whole entry): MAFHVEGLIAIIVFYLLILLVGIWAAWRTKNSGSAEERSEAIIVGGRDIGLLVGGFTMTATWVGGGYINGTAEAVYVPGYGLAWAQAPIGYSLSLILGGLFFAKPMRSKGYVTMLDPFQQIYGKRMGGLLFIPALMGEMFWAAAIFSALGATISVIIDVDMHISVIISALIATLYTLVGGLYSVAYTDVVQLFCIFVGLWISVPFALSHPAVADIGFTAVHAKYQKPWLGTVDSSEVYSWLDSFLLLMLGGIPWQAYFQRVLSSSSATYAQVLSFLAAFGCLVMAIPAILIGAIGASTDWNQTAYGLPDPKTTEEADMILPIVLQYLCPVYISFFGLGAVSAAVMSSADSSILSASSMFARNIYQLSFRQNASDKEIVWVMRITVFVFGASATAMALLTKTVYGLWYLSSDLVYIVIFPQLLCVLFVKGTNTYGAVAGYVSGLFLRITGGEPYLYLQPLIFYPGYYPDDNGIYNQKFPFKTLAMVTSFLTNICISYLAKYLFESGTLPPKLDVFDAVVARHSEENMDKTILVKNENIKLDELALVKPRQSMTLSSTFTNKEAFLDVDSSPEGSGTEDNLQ

[3] = biological target: T2, High affinity choline transporter 1; assay: CHT inhibitors, dose response, cell-based, 5-point CRC, membrane potential dye (AID 504840); type: functional
[4] = biological target: Tyrosine-protein phosphatase non-receptor type 11 (Homo sapiens, UniProt Q06124); assay: SHP2 phosphatase inhibition, dose response, selectivity assay for STEP inhibitor project, biochemical (AID 602367); type: functional; settings: read-out: IC50_Mean
[5] = biological target: Dual specificity protein phosphatase 3 (Homo sapiens, UniProt P51452); assay: VHR phosphatase inhibition, dose response, selectivity assay for STEP inhibitor project, biochemical (AID 602374); type: functional; settings: read-out: IC50_Mean
[6] = biological target: T3, Carboxy-terminal domain RNA polymerase II polypeptide A small phosphatase 1 (Homo sapiens, UniProt Q9GZU7); assay: inhibitors of CTDSP1, concentration-response testing, biochemical assay, absorbance-based, actives from ultra-high-throughput screening (AID 540297); type: functional
T3 sequence (Q9GZU7 whole entry): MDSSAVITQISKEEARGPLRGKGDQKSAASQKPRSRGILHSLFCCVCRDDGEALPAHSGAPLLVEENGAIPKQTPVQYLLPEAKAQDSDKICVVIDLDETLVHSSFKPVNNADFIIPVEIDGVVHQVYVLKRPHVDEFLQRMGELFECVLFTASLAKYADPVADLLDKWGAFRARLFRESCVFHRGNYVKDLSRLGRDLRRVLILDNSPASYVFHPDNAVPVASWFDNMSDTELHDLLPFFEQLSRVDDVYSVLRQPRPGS

[7] = biological target: Tyrosine-protein phosphatase non-receptor type 5 (Homo sapiens, UniProt P54829); assay: STEP phosphatase inhibitors, confirmation, biochemical, fluorescence intensity, uHTS hits (AID 602372); type: functional; settings: read-out: IC50_Mean
Prothrombin = Prothrombin (Bos taurus, UniProt P00735); assay: thrombin inhibition, dose response, biochemical, fluorescence polarization, uHTS hits (AID 602369); type: functional
cells [8] = assay: cells
[9] = biological target: DNA (cytosine-5)-methyltransferase 1 (Homo sapiens, UniProt P26358); assay: DNMT1 methyltransferase inhibitors, confirmation, biochemical, fluorescent molecular beacon (AID 602386); type: functional
[10] = biological target: 26S proteasome non-ATPase regulatory subunit 14 (Homo sapiens, UniProt O00487); assay: inhibition of proteasome subunit RPN11 – biochemical, fluorescence polarization, uHTS hits, confirmation (AID 602368); type: functional
[11] = tested on: Streptococcus sp. 'group A'; assay: growth inhibition of control SK(-) GAS strain, dose response, counter-screen for streptokinase expression inhibitor project, luminescence, kanamycin, BacTiterGlo, confirmation (AID 1900); type: functional, organism-based
Streptococcus = assay: Group A Streptococcus viability loss, dose response, counter-screen for streptokinase expression inhibitor project, luminescence, BacTiterGlo (AID 1915); type: functional, organism-based;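 note: potency for reduction of bacterial viability or growth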
[12] = biological target: 72 kDa type IV collagenase (Homo sapiens, UniProt P08253); assay: Dose Response validation of uHTS RPN11 inhibitor hits using a MMP-2 Fluorescence assay.; type: functional
Streptokinase A = biological target: T4, Streptokinase A (Streptococcus pyogenes serotype M1, UniProt P10520); assay: S. pyogenes streptokinase expression inhibitors, potency, dose response, plasminogen activation absorbance, OD405 (AID 1914); type: functional, Streptococcus pyogenes M1 GAS;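 note: secreted streptokinase activity via plasminogen activation per viability signal from cell pellet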
T4 sequence (P10520 whole entry): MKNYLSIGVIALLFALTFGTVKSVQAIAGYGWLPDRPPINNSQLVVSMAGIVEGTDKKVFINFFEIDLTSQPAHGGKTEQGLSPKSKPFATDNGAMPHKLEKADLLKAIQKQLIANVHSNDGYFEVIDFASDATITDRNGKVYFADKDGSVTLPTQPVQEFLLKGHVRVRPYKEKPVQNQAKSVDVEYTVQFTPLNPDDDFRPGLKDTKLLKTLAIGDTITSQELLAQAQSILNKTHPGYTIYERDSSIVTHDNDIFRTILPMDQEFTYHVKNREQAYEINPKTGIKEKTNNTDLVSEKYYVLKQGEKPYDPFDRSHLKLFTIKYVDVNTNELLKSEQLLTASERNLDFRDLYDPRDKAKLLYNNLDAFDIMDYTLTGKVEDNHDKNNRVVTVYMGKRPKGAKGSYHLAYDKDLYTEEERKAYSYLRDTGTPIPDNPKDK

Orexin receptor type 2 [13] = biological target: T5, Orexin receptor type 2 (Homo sapiens, UniProt O43614); assay: Counterscreen assay for antagonists of the orexin 1 receptor (OX1R; HCRTR1): Homogeneous Time Resolved Fluorescence (HTRF)-based cell-based dose response assay for antagonists of the orexin 2 receptor (OX2R; HCRTR2), run by assay provider.; type: functional
T5 sequence (O43614 whole entry): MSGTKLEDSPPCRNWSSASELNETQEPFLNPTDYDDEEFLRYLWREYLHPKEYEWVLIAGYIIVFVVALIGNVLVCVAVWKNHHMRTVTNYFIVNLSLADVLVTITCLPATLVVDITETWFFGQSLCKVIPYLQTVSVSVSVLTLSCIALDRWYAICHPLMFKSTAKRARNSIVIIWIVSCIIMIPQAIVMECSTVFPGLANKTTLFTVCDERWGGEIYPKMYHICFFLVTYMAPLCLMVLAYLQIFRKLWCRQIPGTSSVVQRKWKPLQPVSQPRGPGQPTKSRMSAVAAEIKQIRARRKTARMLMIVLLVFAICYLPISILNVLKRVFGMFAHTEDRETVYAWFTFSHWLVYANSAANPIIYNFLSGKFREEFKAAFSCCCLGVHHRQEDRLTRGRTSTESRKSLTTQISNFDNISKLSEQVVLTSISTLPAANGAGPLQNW

[14] = (§1) Counterscreen for antagonists of the orexin 1 receptor (OX1R; HCRTR1): Fluorescence-based cell-based high throughput dose response assay to identify antagonists of the parental CHO cell line. [Related pubchem assays (depositor defined):AID434989, AID435008, AID463079, AID485270, AID492963, AID492964, AID492965, AID493232, AID504699, AID504701]; type: functional
[15] = biological target: T6, Orexin/Hypocretin receptor type 1 (Homo sapiens, UniProt O43613); assay: Homogeneous Time Resolved Fluorescence (HTRF)-based cell-based high throughput dose response assay for antagonists of the orexin 1 receptor (OX1R; HCRTR1). [Related pubchem assays (depositor defined):AID434989, AID435008, AID463079, AID485270, AID492963, AID492964, AID492965, AID493232, AID504717, AID504718]; type: functional
T6 sequence (O43613 whole entry): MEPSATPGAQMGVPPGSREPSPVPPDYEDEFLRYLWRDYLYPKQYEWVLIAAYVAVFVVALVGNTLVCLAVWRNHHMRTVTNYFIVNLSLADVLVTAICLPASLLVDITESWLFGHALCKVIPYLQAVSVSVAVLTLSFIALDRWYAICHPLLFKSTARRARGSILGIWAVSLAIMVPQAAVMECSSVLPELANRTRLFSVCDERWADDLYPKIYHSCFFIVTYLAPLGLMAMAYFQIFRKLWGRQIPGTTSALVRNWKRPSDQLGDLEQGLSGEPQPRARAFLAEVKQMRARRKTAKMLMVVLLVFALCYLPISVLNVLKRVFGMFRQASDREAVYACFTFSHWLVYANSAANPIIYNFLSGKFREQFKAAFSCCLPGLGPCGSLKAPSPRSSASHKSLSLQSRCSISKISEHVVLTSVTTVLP

CHO-K1 = assay: as §1, with “Homogeneous time resolved fluorescence (HTRF)-based” for “Fluorescence-based”, “cell-based” for “cell-based high throughput”, “CHO-K1” for “CHO”; type: functional; settings: Cricetulus griseus;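 note: potency for inhibition of ATP-stimulated IP1 production as antagonists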
Orexin receptor type 2 [16] = biological target: T5, Orexin receptor type 2; assay: Counterscreen assay for antagonists of the orexin 1 receptor (OX1R; HCRTR1): Fluorescence-based cell-based dose response assay for antagonists of the orexin 2 receptor (OX2R; HCRTR2), run by assay provider.; type: functional
[17] = biological target: T6, Orexin/Hypocretin receptor type 1; assay: Fluorescence-based cell-based high throughput dose response assay for antagonists of the orexin 1 receptor (OX1R; HCRTR1). [Related pubchem assays (depositor defined):AID434989, AID435008, AID463079, AID485270, AID492963, AID492964, AID492965, AID493232, AID504717, AID504718]; type: functional
[18] = biological target: T7, Small ubiquitin-related modifier 1 (Homo sapiens, UniProt P63165); assay: inhibitors of SUMO1 partner interactions, dose response, biochemical, FRET (AID 624383); type: functional; settings: read-out: IC50_Mean
[19] = biological target: T7, Small ubiquitin-related modifier 1; assay: inhibitors of SUMO1 peptide binding, dose response, biochemical, fluorescence polarization, uHTS hits (AID 624382); type: functional; settings: read-out: IC50_Mean
[20] = biological target: Protein disulfide-isomerase (Homo sapiens, UniProt P07237); assay: PDI inhibitors, insulin aggregation turbidity, dose response, biochemical, absorbance, cherry-picked samples (AID 602350); type: functional
[21] = biological target: Adenosylmethionine-8-amino-7-oxononanoate aminotransferase (Mycobacterium tuberculosis, UniProt P9WQ81); assay: Mycobacterium tuberculosis BioA enzyme inhibitor Measured in Biochemical System Using Plate Reader - 2163-02_Inhibitor_Dose_CherryPick_Activity.; type: functional, Mycobacterium tuberculosis UT205
[22] = biological target: ATP-dependent translocase ABCB1 (Homo sapiens, UniProt P08183); assay: ABCB1 efflux pump inhibitor potency, dose response, Jurkat-DNR cells, JC-1, flow cytometry (AID 1689); type: functional
cells [23] = type: functional, cell-based
cells [24] = type: functional, cell-based; remark: listed apart in the source

72 kDa type IV collagenase, sequence (P08253 whole entry): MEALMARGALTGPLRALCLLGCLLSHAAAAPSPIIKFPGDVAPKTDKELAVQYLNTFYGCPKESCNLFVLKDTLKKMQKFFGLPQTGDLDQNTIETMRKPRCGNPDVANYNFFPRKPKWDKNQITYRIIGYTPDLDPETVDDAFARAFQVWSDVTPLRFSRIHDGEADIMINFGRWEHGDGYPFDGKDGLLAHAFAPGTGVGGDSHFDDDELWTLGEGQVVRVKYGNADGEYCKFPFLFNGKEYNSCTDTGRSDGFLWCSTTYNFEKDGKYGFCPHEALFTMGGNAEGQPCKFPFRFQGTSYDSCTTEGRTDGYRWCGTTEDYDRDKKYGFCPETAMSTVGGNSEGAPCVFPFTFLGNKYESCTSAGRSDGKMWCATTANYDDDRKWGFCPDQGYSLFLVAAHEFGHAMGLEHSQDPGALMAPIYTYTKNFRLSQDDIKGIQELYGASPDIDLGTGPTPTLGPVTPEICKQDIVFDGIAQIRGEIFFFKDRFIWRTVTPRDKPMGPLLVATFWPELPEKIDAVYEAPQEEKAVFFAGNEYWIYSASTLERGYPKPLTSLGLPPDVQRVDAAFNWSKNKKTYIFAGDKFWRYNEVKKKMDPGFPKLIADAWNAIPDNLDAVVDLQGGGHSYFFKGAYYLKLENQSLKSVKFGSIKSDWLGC
26S proteasome non-ATPase regulatory subunit 14, sequence (O00487 whole entry): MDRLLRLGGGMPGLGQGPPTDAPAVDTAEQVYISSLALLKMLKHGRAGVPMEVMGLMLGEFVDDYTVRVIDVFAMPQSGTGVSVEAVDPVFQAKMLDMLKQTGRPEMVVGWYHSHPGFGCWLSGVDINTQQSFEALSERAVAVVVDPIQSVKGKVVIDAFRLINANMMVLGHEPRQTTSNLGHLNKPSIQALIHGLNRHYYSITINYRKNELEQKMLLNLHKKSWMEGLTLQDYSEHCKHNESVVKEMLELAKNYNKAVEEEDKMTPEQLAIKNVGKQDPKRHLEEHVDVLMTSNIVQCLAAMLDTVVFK
T7 sequence (P63165 whole entry): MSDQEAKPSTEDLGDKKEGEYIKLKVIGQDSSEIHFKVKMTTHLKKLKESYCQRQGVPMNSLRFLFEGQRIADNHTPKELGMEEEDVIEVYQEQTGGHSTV
Protein disulfide-isomerase, sequence (P07237 whole entry): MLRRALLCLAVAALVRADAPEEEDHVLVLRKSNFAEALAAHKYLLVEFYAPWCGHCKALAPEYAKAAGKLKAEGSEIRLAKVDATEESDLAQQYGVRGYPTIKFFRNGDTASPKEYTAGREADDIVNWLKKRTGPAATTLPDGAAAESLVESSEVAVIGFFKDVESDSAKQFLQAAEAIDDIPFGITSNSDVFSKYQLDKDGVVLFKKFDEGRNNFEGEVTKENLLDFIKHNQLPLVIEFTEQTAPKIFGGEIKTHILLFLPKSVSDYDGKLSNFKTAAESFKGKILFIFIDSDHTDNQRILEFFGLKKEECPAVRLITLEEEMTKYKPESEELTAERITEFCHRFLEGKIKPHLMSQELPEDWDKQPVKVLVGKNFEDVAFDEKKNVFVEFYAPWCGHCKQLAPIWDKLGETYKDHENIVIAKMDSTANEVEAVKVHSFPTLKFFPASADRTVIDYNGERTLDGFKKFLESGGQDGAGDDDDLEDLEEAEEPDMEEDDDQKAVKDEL
Tyrosine-protein phosphatase non-receptor type 5, sequence (P54829 whole entry): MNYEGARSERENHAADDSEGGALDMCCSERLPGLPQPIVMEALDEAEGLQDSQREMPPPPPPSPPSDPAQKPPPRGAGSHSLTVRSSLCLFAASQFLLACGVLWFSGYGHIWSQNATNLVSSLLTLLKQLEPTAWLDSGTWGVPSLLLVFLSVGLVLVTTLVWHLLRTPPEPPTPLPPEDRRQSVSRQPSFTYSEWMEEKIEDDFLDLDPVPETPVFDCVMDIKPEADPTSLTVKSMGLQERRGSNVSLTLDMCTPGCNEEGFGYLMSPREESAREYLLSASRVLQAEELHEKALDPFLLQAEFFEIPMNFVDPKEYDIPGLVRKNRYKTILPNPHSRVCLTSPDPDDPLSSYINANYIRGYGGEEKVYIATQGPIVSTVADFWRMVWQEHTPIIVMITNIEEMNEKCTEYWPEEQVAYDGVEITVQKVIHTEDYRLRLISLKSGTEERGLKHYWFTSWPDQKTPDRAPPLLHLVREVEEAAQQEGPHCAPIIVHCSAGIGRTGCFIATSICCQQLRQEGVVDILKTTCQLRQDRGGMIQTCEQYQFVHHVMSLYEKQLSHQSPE
Dual specificity protein phosphatase 3, sequence (P51452 whole entry, the tested form may be a part): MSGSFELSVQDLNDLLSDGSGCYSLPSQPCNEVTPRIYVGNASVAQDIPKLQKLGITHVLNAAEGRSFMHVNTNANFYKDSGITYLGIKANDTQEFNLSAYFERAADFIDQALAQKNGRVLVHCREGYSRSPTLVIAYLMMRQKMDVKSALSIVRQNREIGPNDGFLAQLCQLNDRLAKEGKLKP
Tyrosine-protein phosphatase non-receptor type 11, sequence (Q06124 whole entry): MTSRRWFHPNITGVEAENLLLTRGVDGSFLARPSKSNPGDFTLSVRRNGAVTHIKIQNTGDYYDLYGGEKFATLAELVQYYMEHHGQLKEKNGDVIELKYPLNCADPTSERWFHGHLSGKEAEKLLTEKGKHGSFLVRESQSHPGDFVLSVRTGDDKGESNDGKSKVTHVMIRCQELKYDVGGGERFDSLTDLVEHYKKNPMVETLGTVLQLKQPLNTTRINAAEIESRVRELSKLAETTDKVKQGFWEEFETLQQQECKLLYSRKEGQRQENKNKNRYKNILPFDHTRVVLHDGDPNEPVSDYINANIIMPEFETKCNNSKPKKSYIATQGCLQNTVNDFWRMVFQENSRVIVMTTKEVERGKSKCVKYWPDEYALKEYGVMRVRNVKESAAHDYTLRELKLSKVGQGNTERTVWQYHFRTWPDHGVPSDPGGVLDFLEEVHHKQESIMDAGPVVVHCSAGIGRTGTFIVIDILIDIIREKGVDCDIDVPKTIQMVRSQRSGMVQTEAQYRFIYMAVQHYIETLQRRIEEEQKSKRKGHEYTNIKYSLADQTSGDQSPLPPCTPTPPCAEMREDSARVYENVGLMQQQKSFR
ATP-dependent translocase ABCB1, sequence (P08183 whole entry): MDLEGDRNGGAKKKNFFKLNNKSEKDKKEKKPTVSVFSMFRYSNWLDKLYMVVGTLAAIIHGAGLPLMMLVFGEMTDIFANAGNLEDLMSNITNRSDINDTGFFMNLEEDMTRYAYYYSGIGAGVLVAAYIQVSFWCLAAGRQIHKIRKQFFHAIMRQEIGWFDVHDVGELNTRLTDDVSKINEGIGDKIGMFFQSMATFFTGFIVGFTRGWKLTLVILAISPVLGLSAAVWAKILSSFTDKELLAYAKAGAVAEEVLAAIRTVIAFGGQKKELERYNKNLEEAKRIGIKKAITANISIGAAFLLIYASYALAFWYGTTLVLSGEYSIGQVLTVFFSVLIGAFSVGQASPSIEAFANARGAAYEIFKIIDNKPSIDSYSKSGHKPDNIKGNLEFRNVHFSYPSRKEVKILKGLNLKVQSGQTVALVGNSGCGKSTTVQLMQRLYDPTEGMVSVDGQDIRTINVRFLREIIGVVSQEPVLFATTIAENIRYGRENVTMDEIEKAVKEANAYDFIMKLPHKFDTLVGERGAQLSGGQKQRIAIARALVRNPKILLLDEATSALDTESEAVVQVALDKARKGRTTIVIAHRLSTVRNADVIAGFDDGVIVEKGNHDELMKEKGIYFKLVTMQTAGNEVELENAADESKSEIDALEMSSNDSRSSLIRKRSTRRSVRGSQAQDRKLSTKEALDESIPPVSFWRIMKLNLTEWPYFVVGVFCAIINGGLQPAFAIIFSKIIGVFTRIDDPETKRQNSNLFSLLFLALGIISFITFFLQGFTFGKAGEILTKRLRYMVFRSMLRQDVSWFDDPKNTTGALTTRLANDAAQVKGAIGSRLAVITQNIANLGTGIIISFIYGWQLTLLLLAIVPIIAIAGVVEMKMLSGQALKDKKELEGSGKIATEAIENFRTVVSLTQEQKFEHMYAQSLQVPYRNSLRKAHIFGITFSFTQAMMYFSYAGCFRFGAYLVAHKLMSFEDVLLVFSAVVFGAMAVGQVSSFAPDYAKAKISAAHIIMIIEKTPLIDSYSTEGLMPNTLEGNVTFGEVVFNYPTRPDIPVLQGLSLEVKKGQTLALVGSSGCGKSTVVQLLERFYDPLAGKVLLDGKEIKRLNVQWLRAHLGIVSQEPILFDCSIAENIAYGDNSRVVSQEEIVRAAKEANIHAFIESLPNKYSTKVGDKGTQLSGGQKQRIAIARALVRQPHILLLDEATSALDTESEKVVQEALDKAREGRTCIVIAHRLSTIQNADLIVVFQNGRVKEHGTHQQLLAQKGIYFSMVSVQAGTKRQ
Adenosylmethionine-8-amino-7-oxononanoate aminotransferase, sequence (P9WQ81 whole entry): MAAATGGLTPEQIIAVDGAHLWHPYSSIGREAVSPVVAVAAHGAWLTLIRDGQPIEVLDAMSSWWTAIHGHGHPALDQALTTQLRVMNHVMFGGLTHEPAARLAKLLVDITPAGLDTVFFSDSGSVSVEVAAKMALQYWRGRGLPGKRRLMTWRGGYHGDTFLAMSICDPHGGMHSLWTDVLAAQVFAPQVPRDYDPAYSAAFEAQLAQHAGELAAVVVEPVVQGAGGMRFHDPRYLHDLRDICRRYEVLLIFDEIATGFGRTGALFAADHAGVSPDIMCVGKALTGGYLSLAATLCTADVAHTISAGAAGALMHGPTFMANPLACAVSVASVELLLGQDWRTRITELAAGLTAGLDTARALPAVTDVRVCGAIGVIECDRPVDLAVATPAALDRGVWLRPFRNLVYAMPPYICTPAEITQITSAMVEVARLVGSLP

O=C(O)COc1ccc(/C=N/NC(=O)/C(=C/C=C/c2ccccc2)NC(=O)c2ccccc2)cc1
IC50 [1]: 103 µM (inactive)

CCc1c(C)nc(N)nc1N1N=C1SCCOc1ccccc1
IC50 [2]: 4.47 µM (active) | IC50 [3]: 9.19 µM (active)

Fc1ccccc1N=C(S)NNc1ncc(C(F)(F)F)cc1Cl
IC50 [2]: 3.55 µM (active) | IC50 [3]: 10 µM (active)

CCCCCn1c(N)c(-c2nc3ccccc3o2)c2c([N+](=O)[O-])nn(C)c(=O)c21
IC50 [4]: 0.738 µM (active) | IC50 [5]: 0.343 µM (active) | IC50 [6]: 3.06 µM (active) | IC50 [7]: > 80 µM (inactive)

CCOC(=O)C1=C(C)N=c2s/c(=C/c3ccc(OCC(=O)O)c(OC)c3)c(=O)n2C1c1ccc(Cl)cc1 (centres undefined)
IC50 (Prothrombin): 25.1 µM (active) | IC50 (cells [8]): 45.5 µM (active) | IC50 [9]: 10.2 µM (active) | IC50 [10]: 11.7 µM (active) | EC50 [11]: 9.79 µM (active) | EC50 (Streptococcus): 13.2 µM (active) | IC50 [12]: > 100 µM (inactive) | EC50 (Streptokinase A): > 150 µM (not active)

COc1cc(CN2CC(=O)N(c3ccccc3Cl)C2=S)cc(OC)c1OC
IC50 (Orexin receptor type 2 [13]): > 50 µM (inactive) | IC50 [14]: 21.4 µM (inactive) | IC50 [15]: 1.01 µM (active) | IC50 (CHO-K1): > 66.2 µM (inactive) | IC50 (Orexin receptor type 2 [16]): > 88.8 µM (inactive) | IC50 [17]: 6.26 µM (active)

Cc1ccc(-c2csc3nnc(SCC(=O)Nc4nsc(-c5ccccc5)n4)n23)cc1
IC50 (Orexin receptor type 2 [13]): 0.177 µM (active) | IC50 [14]: > 49.7 µM (inactive) | IC50 [15]: 2.53 µM (active) | IC50 (CHO-K1): > 66.2 µM (inactive) | IC50 (Orexin receptor type 2 [16]): > 88.8 µM (inactive) | IC50 [17]: 5.64 µM (active)

O=c1cc(-c2ccc(O)cc2)oc2c1ccc1ccccc12
IC50 (Prothrombin): 62.2 µM (active) | IC50 [18]: 7.87 µM (active) | IC50 [10]: 47.7 µM (active) | IC50 [12]: > 100 µM (inactive) | IC50 [19]: > 66.6 µM (inactive)

COc1ccccc1N1CCN(C(=O)C(=O)N/N=C/c2cccc(O)c2)CC1
AC50 [20]: 19.5 µM (active)

CC(=O)Nc1ccc2[nH]c(-c3cccnc3)nc2c1
AC50 [21]: 4.1 µM (active)

COc1ccc(/C=N/NC(=O)c2cccnc2)cc1CN1CCN(c2ccc(F)cc2)CC1
EC50 [22]: 1.01 µM (active) | EC50 (cells [23]): > 350 µM (not active) | EC50 (cells [24]): > 350 µM (not active)
